Here are results for nine molecules from patent publication US6969702B2, “Compounds and methods for increasing neurogenesis” (priority 2002, dated 2005).

Data set [1] has as its system mouse adult neural stem cells. Description: ATP-assay: proliferation (ATP levels) of neurosphere-derived cells. The following applies: for Fold Induction ATP: vs vehicle.
In data set [2] the test system is cAMP activation in mouse adult neural stem cells. Description: cAMP detection (HitHunter EFC Cyclic AMP Chemiluminescence Assay). The note with it: Table 2.

SMILES strings stand for the structures. Marks after values point to notes of the source that are not given here. Peptide text beside a SMILES is read from it.

Turning to `CC(C)C[C@H](NC(=O)[C@H](CCCCN)NC(=O)CNC(=O)[C@H](CC(C)C)NC(=O)[C@@H](N)C(C)C)C(=O)N[C@@H](CO)C(=O)N[C@@H](CCC(N)=O)C(=O)N[C@@H](CCC(=O)O)C(=O)N[C@@H](CC(C)C)C(=O)N[C@@H](Cc1c[nH]cn1)C(=O)N[C@@H](CCCCN)C(=O)N[C@@H](CC(C)C)C(=O)N[C@@H](CCC(N)=O)C(=O)N[C@H](C(=O)N[C@@H](Cc1ccc(O)cc1)C(=O)N1CCC[C@H]1C(=O)N[C@@H](CCCNC(=N)N)C(=O)N[C@H](C(=O)N[C@@H](CC(N)=O)C(=O)N[C@H](C(=O)NCC(=O)N[C@@H](CO)C(=O)NCC(=O)N[C@H](C(=O)N1CCC[C@H]1C(N)=O)[C@@H](C)O)[C@@H](C)O)[C@@H](C)O)[C@@H](C)O` (H-VLGKLSQELHKLQTYPRTNTGSGTP-NH2; N-terminus and C-terminus assumed), in data set [1] (Table 4, 100 nM), the “ATP (nM ATP/well)” value was determined as 15.0 ± 2.2 nM ATP/well.

Consider `CSCC[C@H](NC(=O)[C@H](CO)NC(=O)[C@H](Cc1ccc(O)cc1)NC(=O)[C@@H](N)CO)C(=O)N[C@@H](CCC(=O)O)C(=O)N[C@@H](Cc1cnc[nH]1)C(=O)N[C@@H](Cc1ccccc1)C(=O)N[C@@H](CCCNC(=N)N)C(=O)N[C@@H](Cc1c[nH]c2ccccc12)C(=O)NCC(=O)N[C@@H](CCCCN)C(=O)N1CCC[C@H]1C(=O)N[C@H](C(=O)NCC(=O)N[C@@H](CCCCN)C(=O)N[C@@H](CCCCN)C(=O)N[C@@H](CCCNC(=N)N)C(=O)N[C@@H](CCCNC(=N)N)C(=O)N1CCC[C@H]1C(=O)N[C@H](C(=O)N[C@@H](CCCCN)C(=O)N[C@H](C(=O)N[C@@H](Cc1ccc(O)cc1)C(=O)N1CCC[C@H]1C(=O)N[C@@H](CC(N)=O)C(=O)NCC(=O)N[C@@H](C)C(=O)N[C@@H](CCC(=O)O)C(=O)N[C@@H](CC(=O)O)C(=O)N[C@@H](CCC(=O)O)C(=O)N[C@@H](CO)C(=O)N[C@@H](C)C(=O)N[C@@H](CCC(=O)O)C(=O)N[C@@H](C)C(=O)N[C@@H](Cc1ccccc1)C(=O)N1CCC[C@H]1C(=O)N[C@@H](CC(C)C)C(=O)N[C@@H](CCC(=O)O)C(=O)N[C@@H](Cc1ccccc1)C(=O)O)C(C)C)C(C)C)C(C)C` [ACTH (Human)] (H-SYSMEHFRWGKPVGKKRRPVKVYPNGAEDESAEAFPLEF-OH), for which the “Fold Induction cAMP” value in data set [2] (100 nM, vs vehicle) is recorded as 1.8** (100 nM) fold. In data set [1] (Table 2, 1000 nM, 4 days), the “Fold Induction ATP” value is 1.2* fold.

On to `CSCC[C@H](NC(=O)[C@H](CO)NC(=O)[C@H](Cc1ccc(O)cc1)NC(=O)[C@@H](N)CO)C(=O)N[C@@H](CCC(=O)O)C(=O)N[C@@H](Cc1c[nH]cn1)C(=O)N[C@@H](Cc1ccccc1)C(=O)N[C@@H](CCCNC(=N)N)C(=O)N[C@@H](Cc1c[nH]c2ccccc12)C(=O)NCC(=O)N[C@@H](CCCCN)C(=O)N1CCC[C@H]1C(=O)N[C@H](C(=O)NCC(=O)N[C@@H](CCCCN)C(=O)N[C@@H](CCCCN)C(=O)N[C@@H](CCCNC(=N)N)C(=O)N[C@@H](CCCNC(=N)N)C(=O)N1CCC[C@H]1C(=O)N[C@H](C(=O)N[C@@H](CCCCN)C(=O)N[C@H](C(=O)N[C@@H](Cc1ccc(O)cc1)C(=O)N1CCC[C@H]1C(=O)N[C@@H](CC(N)=O)C(=O)NCC(=O)N[C@@H](C)C(=O)N[C@@H](CCC(=O)O)C(=O)N[C@@H](CC(=O)O)C(=O)N[C@@H](CCC(=O)O)C(=O)N[C@@H](CO)C(=O)N[C@@H](C)C(=O)N[C@@H](CCC(=O)O)C(=O)N[C@@H](C)C(=O)N[C@@H](Cc1ccccc1)C(=O)N1CCC[C@H]1C(=O)N[C@@H](CC(C)C)C(=O)N[C@@H](CCC(=O)O)C(=O)N[C@@H](Cc1ccccc1)C(=O)O)C(C)C)C(C)C)C(C)C` [ACTH (Human)] (H-SYSMEHFRWGKPVGKKRRPVKVYPNGAEDESAEAFPLEF-OH; N-terminus and C-terminus assumed), for which, in data set [2] (100 nM (cAMP concentration)), the “cAMP (pmol/well)” value came to 0.11 ± 0.02 pmol/well. The “ATP (nM ATP/well)” value in data set [1] (Table 2, 1000 nM, 4 days) came out at 15.7 ± 1.3 nM ATP/well.

As for `CC[C@H](C)[C@@H]1NC(=O)[C@H](CCCNC(=N)N)NC(=O)[C@H](CC(=O)O)NC(=O)[C@H](CCSC)NC(=O)[C@H](CCCNC(=N)N)NC(=O)CNC(=O)CNC(=O)[C@H](Cc2ccccc2)NC(=O)[C@@H](NC(=O)[C@H](CO)NC(=O)[C@H](CO)NC(=O)[C@H](CCCNC(=N)N)NC(=O)[C@H](CCCNC(=N)N)NC(=O)[C@H](CC(C)C)NC(=O)[C@@H](N)CO)CSSC[C@@H](C(=O)N[C@@H](CC(N)=O)C(=O)N[C@@H](CO)C(=O)N[C@@H](Cc2ccccc2)C(=O)N[C@@H](CCCNC(=N)N)C(=O)N[C@@H](Cc2ccc(O)cc2)C(=O)O)NC(=O)CNC(=O)[C@H](CC(C)C)NC(=O)CNC(=O)[C@H](CO)NC(=O)[C@H](CCC(N)=O)NC(=O)[C@H](C)NC(=O)CNC1=O` [ANP (human)], in data set [1] (Table 4, 10 nM), the “ATP (nM ATP/well)” value came to 12.7 ± 1.0 nM ATP/well and the “Fold Induction ATP” value is reported as 1.3* fold.

For `CC[C@H](C)[C@H](NC(=O)[C@H](CCC(N)=O)NC(=O)[C@H](Cc1c[nH]cn1)NC(=O)[C@H](C)NC(=O)[C@@H](N)CC(C)C)C(=O)N[C@@H](Cc1ccc(O)cc1)C(=O)N[C@@H](CCC(N)=O)C(=O)N[C@@H](Cc1ccccc1)C(=O)N[C@H](C(=O)N[C@@H](CC(=O)O)C(=O)N[C@@H](CCCCN)C(=O)N[C@@H](CC(=O)O)C(=O)N[C@@H](CCCCN)C(=O)N[C@@H](CC(=O)O)C(=O)N[C@@H](CC(N)=O)C(=O)N[C@H](C(=O)N[C@@H](C)C(=O)N1CCC[C@H]1C(=O)N[C@@H](CCCNC(=N)N)C(=O)N[C@@H](CO)C(=O)N[C@@H](CCCCN)C(=O)N[C@H](C(=O)N[C@@H](CO)C(=O)N1CCC[C@H]1C(=O)N[C@@H](CCC(N)=O)C(=O)NCC(=O)N[C@@H](Cc1ccc(O)cc1)C(N)=O)[C@@H](C)CC)C(C)C)[C@@H](C)O` [Adrenomedullin (26-52)] (H-LAHQIYQFTDKDKDNVAPRSKISPQGY-NH2; N-terminus and C-terminus assumed), the “cAMP (pmol/well)” value in data set [2] (1 nM (cAMP concentration)) is reported as 0.33 ± 0.07 pmol/well. For the same molecule, in data set [1] (Table 2, 1 nM, 4 days), the “ATP (nM ATP/well)” value was found to be 11.4 ± 0.7 nM ATP/well.

For the molecule `CC[C@H](C)[C@@H]1NC(=O)[C@H](CCCNC(=N)N)NC(=O)[C@H](CC(=O)O)NC(=O)[C@H](CCSC)NC(=O)[C@H](CCCNC(=N)N)NC(=O)CNC(=O)CNC(=O)[C@H](Cc2ccccc2)NC(=O)[C@@H](NC(=O)[C@H](CO)NC(=O)[C@H](CO)NC(=O)[C@H](CCCNC(=N)N)NC(=O)[C@H](CCCNC(=N)N)NC(=O)[C@H](CC(C)C)NC(=O)[C@@H](N)CO)CSSC[C@@H](C(=O)N[C@@H](CC(N)=O)C(=O)N[C@@H](CO)C(=O)N[C@@H](Cc2ccccc2)C(=O)N[C@@H](CCCNC(=N)N)C(=O)N[C@@H](Cc2ccc(O)cc2)C(=O)O)NC(=O)CNC(=O)[C@H](CC(C)C)NC(=O)CNC(=O)[C@H](CO)NC(=O)[C@H](CCC(N)=O)NC(=O)[C@H](C)NC(=O)CNC(=O)[C@H]([C@@H](C)CC)NC(=O)[C@H](CCCNC(=N)N)NC(=O)[C@H](CC(=O)O)NC(=O)[C@H](CCSC)NC(=O)[C@H](CCCNC(=N)N)NC(=O)CNC(=O)CNC(=O)[C@H](Cc2ccccc2)NC(=O)[C@@H](NC(=O)[C@H](CO)NC(=O)[C@H](CO)NC(=O)[C@H](CCCNC(=N)N)NC(=O)[C@H](CCCNC(=N)N)NC(=O)[C@H](CC(C)C)NC(=O)[C@@H](N)CO)CSSC[C@@H](C(=O)N[C@@H](CC(N)=O)C(=O)N[C@@H](CO)C(=O)N[C@@H](Cc2ccccc2)C(=O)N[C@@H](CCCNC(=N)N)C(=O)N[C@@H](Cc2ccc(O)cc2)C(=O)O)NC(=O)CNC(=O)[C@H](CC(C)C)NC(=O)CNC(=O)[C@H](CO)NC(=O)[C@H](CCC(N)=O)NC(=O)[C@H](C)NC(=O)CNC1=O` [Beta-ANP], in data set [2] (100 nM (cAMP concentration)), the “cAMP (pmol/well)” value is given as 070 ± 0.04 pmol/well. Further, in data set [1] (Table 2, 100 nM, 4 days), the “ATP (nM ATP/well)” value is reported as 13.6 ± 2.1 nM ATP/well.

Turning to `CC[C@H](C)[C@H](NC(=O)[C@H](C)NC(=O)[C@@H](NC(=O)[C@H](CCC(N)=O)NC(=O)[C@@H]1CCCN1C(=O)[C@H](Cc1ccccc1)NC(=O)[C@@H](NC(=O)[C@H](Cc1c[nH]cn1)NC(=O)[C@H](Cc1ccccc1)NC(=O)[C@H](CCCCN)NC(=O)[C@H](CC(N)=O)NC(=O)[C@H](Cc1ccccc1)NC(=O)[C@H](CC(=O)O)NC(=O)[C@H](CCC(N)=O)NC(=O)[C@@H](NC(=O)[C@H](Cc1ccc(O)cc1)NC(=O)[C@@H](NC(=O)CNC(=O)[C@H](CC(C)C)NC(=O)[C@H](CCSC)NC(=O)[C@@H]1CSSC[C@H](N)C(=O)NCC(=O)N[C@@H](CC(N)=O)C(=O)N[C@@H](CC(C)C)C(=O)N[C@@H](CO)C(=O)N[C@@H]([C@@H](C)O)C(=O)N1)[C@@H](C)O)[C@@H](C)O)[C@@H](C)O)[C@@H](C)O)C(=O)NCC(=O)N[C@H](C(=O)NCC(=O)N[C@@H](C)C(=O)N1CCC[C@H]1C(N)=O)C(C)C` [Calcitonin (human)], in data set [2] (100 nM (cAMP concentration)), the “cAMP (pmol/well)” value turned out to be 0.35 ± 0.15 pmol/well. Moreover, the “ATP (nM ATP/well)” value in data set [1] (Table 2, 100 nM, 4 days) is reported as 9.9 ± 1.6 nM ATP/well.

Regarding `CC[C@H](C)[C@H](NC(=O)[C@H](CC(=O)O)NC(=O)[C@H](CC(C)C)NC(=O)[C@H](Cc1cnc[nH]1)NC(=O)[C@@H]1CSSC[C@H](N)C(=O)N[C@@H](CO)C(=O)N[C@H]2CSSC[C@H](NC(=O)[C@H](CCC(=O)O)NC(=O)[C@H](CCCCN)NC(=O)[C@H](CC(=O)O)NC(=O)[C@H](CCSC)NC(=O)[C@H](CC(C)C)NC(=O)[C@H](CO)NC(=O)[C@H](CO)NC2=O)C(=O)N[C@@H](C(C)C)C(=O)N[C@@H](Cc2ccc(O)cc2)C(=O)N[C@@H](Cc2ccccc2)C(=O)N1)C(=O)N[C@H](C(=O)N[C@@H](Cc1c[nH]c2ccccc12)C(=O)O)[C@@H](C)CC` [Endothelin-1 (human, Bovine, Canine, Mouse, Porcine, Rat)], the “ATP (nM ATP/well)” value in data set [1] (Table 4, 10 nM) is on record as 14.4 ± 2.4 nM ATP/well. Further, in data set [1] (Table 4, 10 nM, 0.01 µM), the “Fold Induction ATP” value was 3.2* fold.

Consider `CC(C)Cn1c(=O)n(C)c(=O)c2[nH]cnc21` [IBMX, 3-Isobutyl-1-Methylxanthine], for which the “proliferation of neural stem cells” value in data set [1] (cAMP activators, GPCR-independent) was “increase”.
